Results published in article PMC12131194, “Rational design, synthesis, and evaluation of novel polypharmacological compounds targeting NaV1.5, KV1.5, and K2P channels for atrial fibrillation” (The Journal of Biological Chemistry, 2025).

Legend:
h KV1.5 = target: T1, h KV1.5 (Homo sapiens, UniProt P22460); assay: TEVC recordings in X. laevis oocytes, KV1.5; assay type: cell-based; conditions: for Ionic current block IKur: from inhibition curves, used for simulation
T1 construct: h KV1.5 (KCNA5, NM_002234); expressed in transfected cells; host or cells: Xenopus laevis oocytes injected with cRNA
Experimental: The two-electrode voltage clamp (TEVC) technique was used for electrophysiology tests. Channels were expressed in Xenopus laevis oocytes. The initial channel-blocking potential was assessed at 100 μM for the 10 synthesized compounds on TASK-1 and KV1.5 channels.
To obtain X. laevis oocytes, the frogs were anesthetized with 2 g/L of tricaine methanesulfonate, and the ovarian lobes were mechanically separated with forceps. The oocytes were incubated for 120 min in an OR2 solution containing in mM: NaCl 82.5, KCl 2, MgCl2 1, HEPES 5 (pH 7.5) supplemented with 2 mg/ml of collagenase II (Sigma) to remove residual connective tissue and obtain individual oocytes. Subsequently, the oocytes were washed with a ND96 solution containing in mM: NaCl 96, KCl 2, CaCl2 1.8, MgCl2 1, HEPES 5 (pH 7.5, adjusted with NaOH) and stored at 18 °C in ND96 solution supplemented with 1 ml of gentamicin (50 mg/L), sodium pyruvate (275 mg/L) and (90 mg/L) theophylline (inhibits further oocyte maturation) before and after RNA injection.
In order to overexpress the channel in the oocyte, each of the channels to be measured was subcloned (complementary DNA (cDNA); human TASK-1 (KCNK3, NM_002246), h KV1.5 (KCNA5, NM_002234), h NaV1.5 (hH1, M77235), TASK-4/TALK-2 (KCNK17, NM_AF358910), TREK-1 (KCNK2, AF004711) and Kir2.1 (KCNJ2, NM_017296) into pSGEM, pBF1 or pSP64 expression vector, and the cDNA was linearized with NheI or MluI. Complementary RNA (cRNA) was synthesized with the mMESSAGE mMACHINE-Kit (Ambion). The quality of the cRNA was tested on an agarose gel by electrophoresis. cRNA was quantified using a UV-Vis spectrophotometer (NanoDrop 2000). Subsequently, the channel was transfected in the oocytes in stages V and VI, for which […] (TASK-1, KV1.5 or TREK-1), 10 ng (NaV1.5 or TASK-4) o 2.5 ng (Kir2.1) per oocyte of cRNA was injected with a NanojectII microinjector (Drummond Scientific). The oocytes were stored in 24-well plates for 24 to 48 h at 18 °C. After this time, the overexpression of each channel was monitored through electrophysiology.
Two-electrode voltage clamp measurements were performed 24 or 48 h after cRNA injection at room temperature (20–22 °C) in ND96 recording solution with a TurboTEC-10CD (npi) amplifier and a Digidata 1550B (for TASK-1 and KV1.5) and 1440A (for NaV1.5) A/D converter from Axon Instruments. Micropipettes were fabricated from GB 150 TF-8P borosilicate glass capillaries (Science Products) elongated in a DMZ-Universal Puller (Zeitz, Germany). […] ND96 was used as bath solution. Data acquisition was performed using Clampex 10 software (Axon Instruments), and data were analyzed with ClampFit 10 (Axon Instruments) and Origin 7 (Origin Lab Corporation).
For compound inhibition testing, from a holding potential of −80 mV a first test pulse to 0 mV of 1 s duration was followed by a repolarization step at −80 mV for 1 s, directly followed by another 1 s test pulse at +40 mV. The sweep time interval was 10 s for KV1.5 and TASK-1 channels. For the NaV1.5 channel, the block was analyzed with voltage steps from a holding potential of −80 mV. A first depolarizing pulse to −30 mV of 50 ms duration was applied, followed by a 5 ms step to −80 mV. The sweep time interval was 5 s. The compounds were applied at different concentrations to determine the half-maximal inhibitory concentration (IC50), using a fit to the Hill equation.
To test for a putative voltage-dependence of the block by the compound 6f in KV1.5, a 1.5 s voltage step protocol from −80 to +80 mV with +20 mV increments was used. The holding potential was −80 mV and the sweep time interval was 10 s. Currents were analyzed at the end of the voltage pulse. For TASK-1, voltage-dependence of block was probed using a high-potassium solution (KD96) containing in mM: KCl 96, NaCl 2, CaCl2 1.8, MgCl2 1, HEPES 5, (pH 7.5, adjusted with KOH). From a holding potential of 0 mV, voltage was stepped from −80 mV to +80 mV for 1.5 s in +20 mV steps every 10 s. […]

human erythrocytes = assay: Hemolysis assay; assay type: cell-based; conditions: 0.2–400 μM, 2 hours, 37 °C
Experimental: To evaluate cytotoxicity, the hemolysis of the compounds with the best simultaneous blocking activity on the channels (6e, 6f, 7a, 7b and 7c) was considered, modifying the protocol of Chen 2018 ([112]). Thus, non-heparinized human blood was collected. Erythrocytes were washed three times in 1× PBS (phosphate-buffered saline: NaCl, 8 g/L; KCl, 0.2 g/L; Na2HPO4, 1.44 g/L; and KH2PO4, 0.24 g/L; pH 7.4) and then used to prepare a 3% red blood cell (RBC) suspension. The assay was performed in a 96-well polypropylene microplate.
The compounds were prepared from 200 mM stock solutions in DMSO. Subsequently, 1:2 serial dilutions were made in 1× PBS, with final concentrations from 400 to 0.2 μM to a final volume of 200 μl per well. The microplate was incubated for 2 h at 37 °C and centrifuged at 3400 rpm for 5 min. Finally, 100 μl of the supernatant was transferred and measured in a 96-well plate. Hemoglobin release was monitored by photometric analysis of the supernatant at 540 nm using an Epoch Microplate Spectrophotometer (BioTek Instruments, Inc. Winooski, Vermont 05404-0998).
A 3% RBC suspension treated with Tween 20 was used to obtain total lysis as a positive control. Other authors who performed hemolysis assays have also considered this and other detergents, such as Triton X-100 and Sodium Dodecyl Sulfate (SDS) as positive controls ([113], [114], [115], [116]). The negative control was a suspension of red blood cells with PBS. Each experiment was performed in triplicate at all concentrations used. The percentage of hemolysis was calculated with the following (Equation 1), where Ad: absorbance of the dilution, A0: absorbance of the blank (RBC suspension with PBS), and At: total absorbance (positive control).(1) %hemolysis=Ad−A0/At−A0x100

T1 sequence (P22460 whole entry): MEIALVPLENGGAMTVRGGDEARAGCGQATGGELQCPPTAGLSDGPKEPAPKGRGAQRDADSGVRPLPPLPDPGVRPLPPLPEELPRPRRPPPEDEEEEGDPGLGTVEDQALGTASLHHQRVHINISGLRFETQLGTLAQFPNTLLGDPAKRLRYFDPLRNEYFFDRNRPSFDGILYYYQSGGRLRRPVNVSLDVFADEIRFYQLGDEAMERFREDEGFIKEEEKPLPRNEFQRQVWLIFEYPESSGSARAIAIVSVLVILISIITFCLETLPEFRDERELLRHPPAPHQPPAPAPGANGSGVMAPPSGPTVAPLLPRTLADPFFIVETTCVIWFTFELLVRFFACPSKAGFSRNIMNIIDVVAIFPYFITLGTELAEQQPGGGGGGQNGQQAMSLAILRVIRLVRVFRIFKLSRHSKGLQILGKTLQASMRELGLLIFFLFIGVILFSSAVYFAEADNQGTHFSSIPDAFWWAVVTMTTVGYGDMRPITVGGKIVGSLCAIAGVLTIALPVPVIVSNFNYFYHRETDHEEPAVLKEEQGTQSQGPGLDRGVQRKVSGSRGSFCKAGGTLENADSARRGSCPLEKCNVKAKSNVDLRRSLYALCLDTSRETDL

## CCCCN(CCCC)CC(=O)Nc1ccc(OC)cc1OC [Compound 6f, 2-(dibutylamine)-N-(2,4-dimethoxiphenyl)acetamide]
H KV1.5; 1 μM
  Ionic current block IKur: 0%
H KV1.5; 10 μM
  Ionic current block IKur: 2.5%
H KV1.5; 100 μM, +40 mV, oocytes, mean ± SD
  inhibition at 100 µM: 55.8 ± 11.5%
H KV1.5; 100 μM
  Ionic current block IKur: 50%
H KV1.5; X. laevis oocytes, TEVC, block at +40 mV
  IC50: 81.5 µM
H KV1.5; oocytes, 100 μM
  Voltage-dependence of block of KV1.5: no significant voltage-dependence
Human erythrocytes
  Hemolytic effect: no hemolytic effect
